The results in this text go back to patent US20070073039A1, “Peptides that inhibit viral infections” (priority 2005, published 2007).

Data set [1] deals with HCV. The experiment in a line: HCV focus reduction assay. Type of data set: cell-based, Hepatitis C virus (JFH-1). Conditions: for Inhibition of HCV infection: cell culture model of HCV infection; for Fold Inhibition: inhibition of HCV infection; for Fold Inhibition / % of Mock: peptide approximately 20 μM, Huh-7.5.1 cells, 3 days; for % of Mock: number of HCV foci as % of mock (0.5% DMSO); for Fold inhibition of HCV infection: peptide library screen, approximately 20 μM; for Focus Reduction (72 h): working concentration 18.4-27.5 μM per peptide, Mock 51. The protocol: To identify peptides that display antiviral activity against HCV infection, the peptide library was screened by an HCV focus reduction assay. The peptides were constituted in 100% DMSO at a final concentration 10 mg/mL, and stored in −20° C. The peptide stock solution was diluted 1:200 to a final concentration approximately 20 μM in complete DMEM growth medium containing 50 focus forming units (ffu) of HCV. The virus-peptide mixture was transferred to Huh-7.5.1 cells at a density of 8000 cells per well in a 96-well plate. After adsorption for 4 hours at 37° C., the inoculum was removed. The cells were washed 2 times, overlaid with 120 μL fresh growth medium and incubated at 37° C. After 3 days of culture, the cells were fixed with paraformaldehyde and immunostained with antibody against HCV nonstructural protein NS5A. The numbers of HCV foci were counted under fluorescent microscopy and the result is expressed as percentage (%) of mock with no peptide treatment but containing solvent 0.5% DMSO.
To determine whether the antiviral activity of peptide 1 is dependent on its primary amino acid sequence, four derivative peptides from peptide 1 were synthesized to a purity >95%. The four derivatives having the same composition of amino acids included (1) the reversed the sequence of peptide 1 (also called retro-peptide); (2) scrambled hydrophobic amino acids; (3) scrambled hydrophilic amino acids; and (4) a derivative in which the aspartic acid residues (D) were replaced with proline residues (P). The antiviral activity of the peptides was examined by HCV focus reduction assay at three peptide concentrations: 18 μM, 6 μM and 2 μM, as described above.

Data set [2] has as its system HCV. Briefly: Intracellular HCV RNA by real time RT-QPCR after infection of Huh-7.5.1 cells with and without peptide. Conditions: for HCV RNA fold inhibition 24 h 25 μM / HCV RNA fold inhibition 72 h 25 μM: Huh-7.5.1 cells, MOI 0.1, normalized to GAPDH; for Fold Inhibition on HCV RNA (24 h) / Fold Inhibition on HCV RNA (72 h): working concentration 18.4-27.5 μM per peptide. In kind it is cell-based, Hepatitis C virus (JFH-1). The protocol: To accurately quantify the inhibitory effect of the selected peptides on HCV infection, intracellular HCV RNA was measured after infection by real time RT-QPCR with and without peptide treatment. The peptide stock solution was diluted 1:100 and mixed with equal volume of viral supernatant (propagated from day 18 virus preparation post transfection) to a final concentration approximately 20 μM. The virus with peptide or 0.5% DMSO solvent control was then used to infect Huh-7.5.1 cells at a multiplicity of infection (MOI) of 0.1. After an adsorption for 4 hours at 37° C., the inoculum was removed. The cells were washed 2 times, overlaid with 120 μL fresh growth medium and incubated at 37° C. At the indicated time points, total cellular RNA was isolated by the guanidine thiocyanate method. The HCV RNA transcript level was measured by real time RT-QPCR with the primers 5′—
normalized to cellular GAPDH levels.
To define the antiviral action of peptide #1 (SEQ ID NO:43), the antiviral activity of a series of N-terminal and C-terminal truncations of peptide 1 was analyzed using the focus reduction assay and by measuring the reduction in intracellular HCV RNA as described.

For a further data set, the system named is Dengue-2. Briefly: Dengue-2 infection of Vero cells, Intracellular FACS Assay. Type of data set: cell-based. The conditions noted are these: 20 μM, Vero cells 3 days post-infection; for % of Dead cells PI: propidium iodide staining. On the procedure:
Intracellular FACS Assay: Vero cells were seeded for 24 h pre-infection in 6-well plates. Cells were exposed to Dengue-2 in the presence of increasing concentrations of peptide (or DMSO as control). Viruses and peptide were washed away 2 h post-infection. Cells were taken for intracellular staining 3 days post-infection. Cells were stained with appropriate isotype control, Dengue Env, Dengue capsid or tubulin antibodies. Cells were analyzed by FACS.

Data set [3] is described as follows: Preliminary in vivo toxicity in mice. The protocol:
As a preliminary measurement of the in vivo cytotoxicity of the peptides 1, 2 and 3 (see Table 4) a group of three mice (BALB/c mice, 7 weeks old, about 23 g) were each injected with 92 μg L-type peptide 1 ( ˜4 mg/kg) in 200 μL PBS (spun 14,000 rpm for 3 minutes before injection). In the control group, each of three mice was given 200 μL PBS containing 5% DMSO. The mice were monitored for acute toxicity during the first 3 hours after injection.
No change in appearance, activity or behavior was observed. The mice were then weighed on days 0, 3, 5, 7 and 10. Peptide-injected mice gained weight at the same rate as the controls.

No end group written: not given here.

Take YLYGVGSSIASWAIKWEY [Peptide 11]: in the data set with HCV [1], the “Inhibition of HCV infection” value was “strongly inhibit HCV infection”, the “Fold Inhibition” value is recorded as 42.0 fold, the “% of Mock” value came out at 2.4% and the “Fold inhibition of HCV infection” value is given as “more than ten-fold”. In addition, in the data set with HCV [2], the “HCV RNA fold inhibition 24 h 25 μM” value is listed as 9 fold and the “HCV RNA fold inhibition 72 h 25 μM” value stood at 7 fold.
In the case of WDWICEVLSDFK [^N-12mer], the “Focus Reduction (72 h)” value with HCV [1] is recorded as 38. In the data set with HCV [2], the “Fold Inhibition on HCV RNA (24 h)” value turned out to be 2.2 fold and the “Fold Inhibition on HCV RNA (72 h)” value is listed as 1.4 fold.
In the same order, the values of SWLRDIWDWICE [^C-12mer] are 107, 0.8 fold and 0.5 fold.
Take DIWDWICEVLSDFK [^N-14mer]: the “% of Dead cells PI” value with Dengue-2 turned out to be 0.76%.
As for SWLRDIWD [^C-8mer], the “Focus Reduction (72 h)” value in the data set on HCV [1] came to 58. Moreover, in the data set with HCV [2], the “Fold Inhibition on HCV RNA (24 h)” value came to 1.3 fold and the “Fold Inhibition on HCV RNA (72 h)” value was found to be 1.0 fold.
As for ALYVGDLCGSVFLVGQLF [Peptide 7], in the data set on HCV [1], the “Inhibition of HCV infection” value was “strongly inhibit HCV infection”, the “Fold Inhibition” value came to 100.0 fold, the “% of Mock” value came to 1.0% and the “Fold inhibition of HCV infection” value is “more than ten-fold”. Further, in the data set on HCV [2], the “HCV RNA fold inhibition 24 h 25 μM” value is reported as 20 fold and the “HCV RNA fold inhibition 72 h 25 μM” value was found to be 11 fold.
As for WICEVLSDFK [^N-10mer], in the data set with HCV [1], the “Focus Reduction (72 h)” value was found to be 45. Besides, in the data set with HCV [2], the “Fold Inhibition on HCV RNA (24 h)” value amounted to 1.1 fold and the “Fold Inhibition on HCV RNA (72 h)” value worked out at 1.0 fold.
For ATQTFLATCINGVCWTVY [Peptide 12], in the data set with HCV [1], the “Inhibition of HCV infection” value was “strongly inhibit HCV infection”, the “Fold Inhibition” value stood at 42.0 fold, the “% of Mock” value is 2.4% and the “Fold inhibition of HCV infection” value is reported as “more than ten-fold”. In addition, in the data set with HCV [2], the “HCV RNA fold inhibition 24 h 25 μM” value amounted to 8 fold and the “HCV RNA fold inhibition 72 h 25 μM” value came to 5 fold.
Consider SWLRDIWDWICEV [^C-13mer], for which, in the data set on Dengue-2, the “% of Dead cells PI” value was found to be 3.04%.
Turning to IFLLALLSCLTVPASAYQ [Peptide 8], in the data set with HCV [1], the “Inhibition of HCV infection” value is “strongly inhibit HCV infection”, the “Fold Inhibition” value came out at 42.0 fold, the “% of Mock” value is 2.4% and the “Fold inhibition of HCV infection” value was “more than ten-fold”. Moreover, in the data set on HCV [2], the “HCV RNA fold inhibition 24 h 25 μM” value came out at 18 fold and the “HCV RNA fold inhibition 72 h 25 μM” value was 7 fold.
Take DWICEVLSDFKTWLKAKL [Peptide 13]: in the data set on HCV [1], the “Inhibition of HCV infection” value is given as “strongly inhibit HCV infection”, the “Fold Inhibition” value is on record as 42.0 fold, the “% of Mock” value came to 2.4% and the “Fold inhibition of HCV infection” value is given as “more than ten-fold”. Further, in the data set on HCV [2], the “HCV RNA fold inhibition 24 h 25 μM” value is given as 7 fold and the “HCV RNA fold inhibition 72 h 25 μM” value is recorded as 2 fold.
Regarding `CSCC[C@H](NC(=O)[C@H](CO)NC(=O)[C@H](CS)NC(=O)[C@H](CS)NC(=O)[C@@H](NC(=O)[C@@H](NC(=O)[C@H](CC(=O)O)NC(=O)[C@H](CCC(=O)O)NC(=O)[C@@H](NC(=O)[C@H](CC(=O)O)NC(=O)[C@H](C)NC(=O)CNC(=O)[C@H](CO)NC(=O)[C@@H](N)CO)[C@@H](C)O)C(C)C)C(C)C)C(=O)N[C@@H](CO)C(=O)N[C@@H](Cc1ccc(O)cc1)C(=O)N[C@@H](CO)C(=O)N[C@@H](Cc1c[nH]c2ccccc12)C(=O)O` [Peptide 3], in data set [3] (92 μg ( ˜4 mg/kg) in 200 μL PBS, acute toxicity first 3 hours, weight to day 10), the “In vivo toxicity observation” value is “Peptides 1, 2 and 3 are Nontoxic in C57BL/6 Mice”. Moreover, the “Weight(g) (d.0)” value in data set [3] (day 0, ˜4 mg/kg injected) amounted to 24.1 g. In data set [3] (day 3), the “Weight(g) (d.3)” value was found to be 24.1 g. Also, the “Weight(g) (d.5)” value in data set [3] (day 5) is 24.7 g. In addition, the “Weight(g) (d.7)” value in data set [3] (day 7) is listed as 24.7 g. Further, the “Weight(g) (d.10)” value in data set [3] (day 10) is reported as 24.7 g.
Take WMMLLISQAEAALENLVI [Peptide 4]: in the data set on HCV [1], the “Inhibition of HCV infection” value is given as “strongly inhibit HCV infection”, the “Fold Inhibition” value is 21.0 fold, the “% of Mock” value came to 4.8% and the “Fold inhibition of HCV infection” value is given as “more than ten-fold”. Moreover, in the data set with HCV [2], the “HCV RNA fold inhibition 24 h 25 μM” value is listed as 27 fold and the “HCV RNA fold inhibition 72 h 25 μM” value was found to be 40 fold.
For CEVLSDFK [^N-8mer], the “Focus Reduction (72 h)” value in the data set on HCV [1] was 53. In the data set with HCV [2], the “Fold Inhibition on HCV RNA (24 h)” value is 1.1 fold and the “Fold Inhibition on HCV RNA (72 h)” value turned out to be 0.7 fold.
For LYGNEGCGWAGWLLSPRG [Peptide 10], in the data set on Dengue-2, the “% of Dead cells PI” value is recorded as 4.05%.
As for TLVFDITKLLLAIFGPLW [Peptide 6], in the data set on HCV [1], the “Inhibition of HCV infection” value was “strongly inhibit HCV infection”, the “Fold Inhibition” value is reported as 100.0 fold, the “% of Mock” value was determined as 1.0% and the “Fold inhibition of HCV infection” value is “more than ten-fold”. For the same compound, in the data set on HCV [2], the “HCV RNA fold inhibition 24 h 25 μM” value is 24 fold and the “HCV RNA fold inhibition 72 h 25 μM” value is listed as 16 fold.
For the compound SWLRDIWDWICEVLSD [^C-16mer], the “Focus Reduction (72 h)” value in the data set with HCV [1] was 0. In the data set on HCV [2], the “Fold Inhibition on HCV RNA (24 h)” value was determined as 9852.6 fold and the “Fold Inhibition on HCV RNA (72 h)” value is 234207.1 fold.
Regarding GSATLCSALYVGDLCGSV [Peptide 5], in the data set with HCV [1], the “Inhibition of HCV infection” value is recorded as “strongly inhibit HCV infection”, the “Fold Inhibition” value is reported as 100.0 fold, the “% of Mock” value worked out at 1.0% and the “Fold inhibition of HCV infection” value was “more than ten-fold”. In the data set on HCV [2], the “HCV RNA fold inhibition 24 h 25 μM” value turned out to be 26 fold and the “HCV RNA fold inhibition 72 h 25 μM” value turned out to be 27 fold.
As for IMDMIAGAHWGVLAGIAY [Peptide 9], in the data set on HCV [1], the “Inhibition of HCV infection” value is “strongly inhibit HCV infection”, the “Fold Inhibition” value is given as 42.0 fold, the “% of Mock” value turned out to be 2.4% and the “Fold inhibition of HCV infection” value is “more than ten-fold”. Further, in the data set on HCV [2], the “HCV RNA fold inhibition 24 h 25 μM” value was determined as 10 fold and the “HCV RNA fold inhibition 72 h 25 μM” value was 22 fold.
Regarding SWLRDIWDWI [^C-10mer], the “Focus Reduction (72 h)” value in the data set on HCV [1] is 65. In addition, in the data set with HCV [2], the “Fold Inhibition on HCV RNA (24 h)” value turned out to be 0.8 fold and the “Fold Inhibition on HCV RNA (72 h)” value turned out to be 0.6 fold. In addition, in the data set on Dengue-2 (DMSO 41.26), the “% GATED, Dengue α-Capsid (9A7)” value is given as 37.21%. For the same compound, the “% of Dead cells PI” value in the data set with Dengue-2 is 1.2%.
